Experiments:
[1] = system: blackgrass; test: Test A preemergence; assay type: in vivo, Alopecurus myosuroides
Procedure, shortened: (§1)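 Loam/sand soil; pre-em directed soil spray at planting, post-em spray at 1–2 leaf (2–10 cm). Compound in non-phytotoxic solvent + surfactant. Greenhouse 10 d; visual injury vs untreated, 0 = no effect, 100 = complete control.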

[2] = system: corn; test: Test A preemergence; assay type: in vivo, Zea mays
Procedure, shortened: as §1

[3] = system: foxtail, giant; test: Test A preemergence; assay type: in vivo, Setaria faberi
Procedure, shortened: as §1

[4] = system: goosegrass; test: Test A preemergence; assay type: in vivo, Eleusine indica
Procedure, shortened: as §1

[5] = system: kochia; test: Test A preemergence; assay type: in vivo, Bassia scoparia
Procedure, shortened: as §1

[6] = system: oat, wild; test: Test A preemergence; assay type: in vivo, Avena fatua
Procedure, shortened: as §1

[7] = system: pigweed, palmer; test: Test A preemergence; assay type: in vivo, Amaranthus palmeri
Procedure, shortened: as §1

[8] = system: ragweed; test: Test A preemergence; assay type: in vivo, Ambrosia artemisiifolia
Procedure, shortened: as §1

[9] = system: ryegrass, Italian; test: Test A preemergence; assay type: in vivo, Lolium multiflorum
Procedure, shortened: as §1

[10] = system: soybean; test: Test A preemergence; assay type: in vivo, Glycine max
Procedure, shortened: as §1

[11] = system: wheat; test: Test A preemergence; assay type: in vivo, Triticum aestivum
Procedure, shortened: as §1

[12] = system: blackgrass; test: Test A postemergence; assay type: in vivo, Alopecurus myosuroides
Procedure, shortened: as §1

[13] = system: corn; test: Test A postemergence; assay type: in vivo, Zea mays
Procedure, shortened: as §1

[14] = system: foxtail, giant; test: Test A postemergence; assay type: in vivo, Setaria faberi
Procedure, shortened: as §1

[15] = system: goosegrass; test: Test A postemergence; assay type: in vivo, Eleusine indica
Procedure, shortened: as §1

[16] = system: kochia; test: Test A postemergence; assay type: in vivo, Bassia scoparia
Procedure, shortened: as §1

[17] = system: oat, wild; test: Test A postemergence; assay type: in vivo, Avena fatua
Procedure, shortened: as §1

[18] = system: pigweed, palmer; test: Test A postemergence; assay type: in vivo, Amaranthus palmeri
Procedure, shortened: as §1

[19] = system: ragweed; test: Test A postemergence; assay type: in vivo, Ambrosia artemisiifolia
Procedure, shortened: as §1

[20] = system: ryegrass, Italian; test: Test A postemergence; assay type: in vivo, Lolium multiflorum
Procedure, shortened: as §1

[21] = system: soybean; test: Test A postemergence; assay type: in vivo, Glycine max
Procedure, shortened: as §1

[22] = system: wheat; test: Test A postemergence; assay type: in vivo, Triticum aestivum
Procedure, shortened: as §1

[23] = system: galium; test: Test A postemergence; assay type: in vivo, Galium aparine
Procedure, shortened: as §1

[24] = system: horseweed; test: Test A postemergence; assay type: in vivo, Erigeron canadensis
Procedure, shortened: as §1

[25] = system: barnyardgrass; test: Test B flooded paddy test; assay type: in vivo, Echinochloa crus-galli; conditions: 250 g ai/ha, Flood, 13 days, 0 to 100 scale (0 no effect, 100 complete control)
Procedure, shortened: (§2)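 Percent weed or crop control, judged by eye on a 0–100 scale 13 days post-treatment, reflects compound added to a 3 cm flood maintained over 2-leaf plants in the greenhouse. Missing entries are marked with a dash.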

[26] = system: ducksalad; test: Test B flooded paddy test; assay type: in vivo, Heteranthera limosa; conditions: 250 g ai/ha, Flood, 13 days, 0 to 100 scale (0 no effect, 100 complete control)
Procedure, shortened: as §2

[27] = system: rice; test: Test B flooded paddy test; assay type: in vivo, Oryza sativa; conditions: 250 g ai/ha, Flood, 13 days, 0 to 100 scale (0 no effect, 100 complete control)
Procedure, shortened: as §2

[28] = system: sedge, umbrella; test: Test B flooded paddy test; assay type: in vivo, Cyperus difformis; conditions: 250 g ai/ha, Flood, 13 days, 0 to 100 scale (0 no effect, 100 complete control)
Procedure, shortened: as §2

[29] = 125 g ai/ha, visual injury after 10 days, 0 to 100 scale, 0 is no effect, 100 is complete control
[30] = 500 g ai/ha, 0 to 100 scale (0 no effect, 100 complete control), 10 days
[31] = 125 g ai/ha, postemergence, 10 days, visual injury, 0 to 100 scale (0 no effect, 100 complete control)
[32] = 500 g ai/ha, Postemergence, 0 to 100 scale
[33] = 125 g ai/ha, postemergence, 10 days, 0 to 100 scale, 0 no effect, 100 complete control
[34] = 500 g ai/ha, postemergence, 10 days, visual injury, 0 to 100 scale (0 no effect, 100 complete control)

## Cc1c(C(=O)N2CC(C)Oc3c(Cl)cccc32)cccc1-n1cncn1 (centres unmarked) [Compound 40]
[1]; [29]
  Plant response rating, Blackgrass: 0
[1]; [30]
  Plant response rating, Blackgrass: 0
[2]; [29]
  Plant response rating, Corn: 0
[2]; [30]
  Plant response rating, Corn: 0
[3]; [29]
  Plant response rating, Foxtail, Giant: 0
[3]; [30]
  Plant response rating, Foxtail, Giant: 0
[4]; [29]
  Plant response rating, Goosegrass: 0
[4]; [30]
  Plant response rating, Goosegrass: 0
[5]; [29]
  Plant response rating, Kochia: 0
[5]; [30]
  Plant response rating, Kochia: 0
[6]; [29]
  Plant response rating, Oat, Wild: 0
[6]; [30]
  Plant response rating, Oat, Wild: 0
[7]; [29]
  Plant response rating, Pigweed, Palmer: 0
[7]; [30]
  Plant response rating, Pigweed, Palmer: 0
[8]; [29]
  Plant response rating, Ragweed: 0
[8]; [30]
  Plant response rating, Ragweed: 0
[9]; [29]
  Plant response rating, Ryegrass, Italian: 0
[9]; [30]
  Plant response rating, Ryegrass, Italian: 0
[10]; [29]
  Plant response rating, Soybean: 0
[10]; [30]
  Plant response rating, Soybean: 40
[11]; [29]
  Plant response rating, Wheat: 0
[11]; [30]
  Plant response rating, Wheat: 0
[12]; [31]
  Plant response rating, Blackgrass: 0
[12]; [32]
  Plant response rating, Blackgrass: 0
[13]; [31]
  Plant response rating, Corn: 0
[13]; [32]
  Plant response rating, Corn: 0
[14]; [31]
  Plant response rating, Foxtail, Giant: 0
[14]; [32]
  Plant response rating, Foxtail, Giant: 0
[15]; [31]
  Plant response rating, Goosegrass: 0
[15]; [32]
  Plant response rating, Goosegrass: 0
[16]; [31]
  Plant response rating, Kochia: 0
[16]; [32]
  Plant response rating, Kochia: 10
[17]; [31]
  Plant response rating, Oat, Wild: 0
[17]; [32]
  Plant response rating, Oat, Wild: 0
[18]; [31]
  Plant response rating, Pigweed, Palmer: 0
[18]; [32]
  Plant response rating, Pigweed, Palmer: 0
[19]; [31]
  Plant response rating, Ragweed: 0
[19]; [32]
  Plant response rating, Ragweed: 0
[20]; [31]
  Plant response rating, Ryegrass, Italian: 0
[20]; [32]
  Plant response rating, Ryegrass, Italian: 0
[21]; [31]
  Plant response rating, Soybean: 0
[21]; [32]
  Plant response rating, Soybean: 20
[22]; [31]
  Plant response rating, Wheat: 0
[22]; [32]
  Plant response rating, Wheat: 0
[23]; [31]
  Plant response rating, Galium: 30
[23]; [32]
  Plant response rating, Galium: 0
[24]; [31]
  Plant response rating, Horseweed: 0
[24]; [32]
  Plant response rating, Horseweed: 0
[25]
  Plant response rating, Barnyardgrass: 0
[26]
  Plant response rating, Ducksalad: 0
[27]
  Plant response rating, Rice: 0
[28]
  Plant response rating, Sedge, Umbrella: 0

## C[C@H]1CN(C(=O)c2cccc(-n3cnc(C(C)(C)C)n3)c2)c2cccc(Cl)c2O1 [Compound 92]
[1]; [29]
  Plant response rating, Blackgrass: 80
[1]; [30]
  Plant response rating, Blackgrass: 90
[2]; [29]
  Plant response rating, Corn: 30
[2]; [30]
  Plant response rating, Corn: 30
[3]; [29]
  Plant response rating, Foxtail, Giant: 70
[3]; [30]
  Plant response rating, Foxtail, Giant: 100
[4]; [29]
  Plant response rating, Goosegrass: 100
[4]; [30]
  Plant response rating, Goosegrass: 100
[5]; [29]
  Plant response rating, Kochia: 70
[5]; [30]
  Plant response rating, Kochia: 100
[6]; [29]
  Plant response rating, Oat, Wild: 80
[6]; [30]
  Plant response rating, Oat, Wild: 90
[7]; [29]
  Plant response rating, Pigweed, Palmer: 100
[7]; [30]
  Plant response rating, Pigweed, Palmer: 100
[8]; [29]
  Plant response rating, Ragweed: 0
[8]; [30]
  Plant response rating, Ragweed: 30
[9]; [29]
  Plant response rating, Ryegrass, Italian: 100
[9]; [30]
  Plant response rating, Ryegrass, Italian: 100
[10]; [29]
  Plant response rating, Soybean: 50
[10]; [30]
  Plant response rating, Soybean: 90
[11]; [29]
  Plant response rating, Wheat: 30
[11]; [30]
  Plant response rating, Wheat: 80
[12]; [33]
  Blackgrass plant response rating: 70
[12]; [34]
  Plant response rating, Blackgrass: 90
[13]; [33]
  Corn plant response rating: 30
[13]; [34]
  Plant response rating, Corn: 70
[14]; [33]
  Foxtail, Giant plant response rating: 30
[14]; [34]
  Plant response rating, Foxtail, Giant: 80
[15]; [33]
  Goosegrass plant response rating: 30
[15]; [34]
  Plant response rating, Goosegrass: 50
[16]; [33]
  Kochia plant response rating: 80
[16]; [34]
  Plant response rating, Kochia: 90
[17]; [33]
  Oat, Wild plant response rating: 50
[17]; [34]
  Plant response rating, Oat, Wild: 70
[18]; [33]
  Pigweed, Palmer plant response rating: 90
[18]; [34]
  Plant response rating, Pigweed, Palmer: 90
[19]; [33]
  Ragweed plant response rating: 60
[19]; [34]
  Plant response rating, Ragweed: 70
[20]; [33]
  Ryegrass, Italian plant response rating: 50
[20]; [34]
  Plant response rating, Ryegrass, Italian: 100
[21]; [33]
  Soybean plant response rating: 90
[21]; [34]
  Plant response rating, Soybean: 100
[22]; [33]
  Wheat plant response rating: 40
[22]; [34]
  Plant response rating, Wheat: 50
[23]; [33]
  Galium plant response rating: 100
[23]; [34]
  Plant response rating, Galium: 100
[24]; [33]
  Horseweed plant response rating: 0
[24]; [34]
  Plant response rating, Horseweed: 50
[25]
  Plant response rating, Barnyardgrass: 25
[26]
  Plant response rating, Ducksalad: 90
[27]
  Plant response rating, Rice: 0
[28]
  Plant response rating, Sedge, Umbrella: 0

Reference: patent publication US20260262643A1, “HERBICIDAL BENZOXAZINES” (FMC CORPORATION, priority 2022, published 2026)
